Counter-ions that a name gives are not always drawn.

One series has as its system HBV. As to the kind of experiment: HBV-DNA antiviral assay using HepG2.117 cells. The format is cell-based, HBV genotype D. The conditions noted are these: Hepatitis B virus, HepG2.117, 72 h. How it is done: (§1) The following assay procedure describes the HBV antiviral assay, using HepG2.117 cells, which carry a stably integrated genotype D HBV genome under the control of a Tet-off promoter, and intracellular HBV DNA quantification as endpoint. Cell viability is assessed in parallel by measuring the intracellular ATP content using CellTiter-Glo 2.0 (Promega).
On day 0, HepG2.117 cells (which are maintained in routine cell culture with doxycycline present in the medium at a final concentration of 1 μg/mL) are seeded in 96-well plates (white with clear bottom) at a density of 2.0×10^4 cells/well (0.1 mL/well) in medium without doxycycline to induce pgRNA transcription and subsequent formation of HBV particles. The cells are incubated at 37° C. and 5% CO2.
(§2) On day 1, medium is removed from each well, the test articles are diluted in culture medium without doxcycyline and 100 μL was added to cell culture wells (9 concentrations, 4-fold dilution). For each plate, 6 untreated (merely DMSO) wells are included. The final concentration of DMSO in the culture medium is 2%. Each plate is prepared in duplicate (one for HBV DNA extraction, one for CellTiter-Glo 2.0 measurement). The cells are incubated at 37° C. and 5% CO2 for 3 days.
(§3) On day 4, cell viability is assessed using CellTiter-Glo 2.0 and cell lysates are prepared for HBV DNA extraction and subsequent quantification by qPCR.
HBV DNA Quantification by qPCR
Medium is removed from each well and 100 μL of 0.33% NP-40 in H2O was added to each well. Plates are sealed, incubated at 4° C. for 5 mins, vortexed extensively and centrifuged briefly. Next, 35 μL of lysate is added to 65 μL QuickExtract DNA Extraction Solution (Epicentre) in a PCR plate for each well. PCR plate is incubated at 65° C. for 6 mins, 98° C. for 2 mins and finally cooled to 4° C. HBV DNA is then quantified by qPCR with HBV-specific primers and probes as specified in Table 3 using the Bio-Rad SSOAdvanced Universal Probes Supermix on a CFX96 machine (Bio-Rad). The PCR cycle program consisted of 95° C. for 3 mins, followed by 40 cycles at 95° C. for 10 sec and 60° C. for 30 sec.
A DNA standard is prepared by dilution of an IDT gBlock corresponding to the amplicon with concentrations ranging from 10^2 to 10^8 copies/input (i.e., per 4 μL) and used to generate a standard curve by plotting Cq values vs. HBV DNA standard concentration. The quantity of HBV DNA in each sample is determined by interpolating from the standard curve.
(§4) Cell viability is calculated as follows: % Cell viability=(luminescence value of test sample)/(average luminescence value of 2% DMSO control)×100%. HBV DNA inhibition was calculated as follows: 100−(HBV DNA copy number of test sample)/(average HBV DNA copy number of 2% DMSO control)×100%. No normalization to entecavir is required due to the excellent dynamic window of this assay. The CC50, EC50 and EC9o values were determined by dose-response curves fitted using non-linear regression.

Series [1] is described as follows: Cell viability by CellTiter-Glo 2.0 (intracellular ATP content) in HepG2.117 cells. Type of series: cell-based. The conditions noted are these: human, CellTiter-Glo 2.0, 3 days incubation. How it is done: as §1, §2, §3
Using the other plates, the cell viability is quantified by CellTiter-Glo 2.0 according to the manufacturer's manual. In brief, 100 μL of reagent solution is added to the culture plates and shaken for 2′. The plates are incubated at rt for 10 min and luminescence signal is subsequently measured on a VarioSkan Lux (ThermoFisher) plate reader.
as §4
On the technique in general: In ATP-based viability assays light output follows the ATP content of the culture.

As a reminder, the EC50 is the concentration at which the effect is half-maximal. Read a low EC50 as greater potency. As usually defined, the CC50 is the concentration at which the toxic effect on the cells reaches its halfway point. High values mean lower toxicity to the cells, low ones greater toxicity to the cells. The compound `Cc1cc(C)n(-c2nc3c(c(=O)n2-c2ccc4c(c2)ncn4C)C[C@@H](C)N(C(=O)c2ccc(Br)c(C(F)(F)F)c2)C3)n1` [Compound 1, (R)-7-(4-bromo-3-(trifluoromethyl)benzoyl)-2-(3,5-dimethyl-1H-pyrazol-1-yl)-6-methyl-3-(1-methyl-1H-benzo[d]imidazol-5-yl)-5,6,7,8-tetrahydropyrido[3,4-d]pyrimidin-4(3H)-one] displayed an EC50 with HBV below 50 nM. This compound also gave a CC50 at 3 days in series [1] above 500 nM.

For the compound `CNC(=O)c1ccc(-n2c(-n3nc(C)cc3C)nc3c(c2=O)C[C@@H](C)N(C(=O)c2ccc(Br)c(C(F)(F)F)c2)C3)cc1Cl` [Compound 2, (R)-4-(7-(4-bromo-3-(trifluoromethyl)benzoyl)-2-(3,5-dimethyl-1H-pyrazol-1-yl)-6-methyl-4-oxo-5,6,7,8-tetrahydropyrido[3,4-d]pyrimidin-3(4H)-yl)-2-chloro-N-methylbenzamide], the EC50 in the series with HBV was below 50 nM. The CC50 at 3 days in series [1] was above 500 nM.

On to `Cc1cc(C)n(-c2nc3c(c(=O)n2-c2ccc4c(ncn4C)n2)C[C@@H](C)N(C(=O)c2ccc(Br)c(C(F)(F)F)c2)C3)n1` [Compound 3, (R)-7-(4-bromo-3-(trifluoromethyl)benzoyl)-2-(3,5-dimethyl-1H-pyrazol-1-yl)-6-methyl-3-(1-methyl-1H-imidazo[4,5-b]pyridin-5-yl)-5,6,7,8-tetrahydropyrido[3,4-d]pyrimidin-4(3H)-one], for which, in the series on HBV, the EC50 was below 50 nM. The compound further had a CC50 at 3 days in series [1] above 500 nM.

The compound `Cc1cc(C)n(-c2nc3c(c(=O)n2-c2ccc(O)cc2)C[C@@H](C)N(C(=O)c2ccc(Br)c(C(F)(F)F)c2)C3)n1` [Compound 4, (R)-7-(4-bromo-3-(trifluoromethyl)benzoyl)-2-(3,5-dimethyl-1H-pyrazol-1-yl)-3-(4-hydroxyphenyl)-6-methyl-5,6,7,8-tetrahydropyrido[3,4-d]pyrimidin-4(3H)-one] came in with a concentration giving a half-maximal response (EC50) with HBV below 50 nM. In addition, the CC50 at 3 days in series [1] is above 500 nM.

For the compound `Cc1cc(C)n(-c2nc3c(c(=O)n2-c2ccc(OCC(N)=O)cc2)C[C@@H](C)N(C(=O)c2ccc(Br)c(C(F)(F)F)c2)C3)n1` [Compound 5, (R)-2-(4-(7-(4-bromo-3-(trifluoromethyl)benzoyl)-2-(3,5-dimethyl-1H-pyrazol-1-yl)-6-methyl-4-oxo-5,6,7,8-tetrahydropyrido[3,4-d]pyrimidin-3(4H)-yl)phenoxy)acetamide], the EC50 in the series on HBV is below 50 nM. Also, the 50% cytotoxic concentration (CC50) at 3 days in series [1] is above 500 nM.

As to `Cc1cc(C)n(-c2nc3c(c(=O)n2-c2ccc(OC[C@@H](O)CO)cc2)C[C@@H](C)N(C(=O)c2ccc(Br)c(C(F)(F)F)c2)C3)n1` [Compound 6, (R)-7-(4-bromo-3-(trifluoromethyl)benzoyl)-3-(4-((S)-2,3-dihydroxypropoxy)phenyl)-2-(3,5-dimethyl-1H-pyrazol-1-yl)-6-methyl-5,6,7,8-tetrahydropyrido[3,4-d]pyrimidin-4(3H)-one], the EC50 in the series on HBV is 50 to 500 nM. In series [1], this compound had a CC50 at 3 days above 500 nM.

Consider `Cc1cc(C)n(-c2nc3c(c(=O)n2-c2ccc(OC[C@H](O)CO)cc2)C[C@@H](C)N(C(=O)c2ccc(Br)c(C(F)(F)F)c2)C3)n1` [Compound 7, (R)-7-(4-bromo-3-(trifluoromethyl)benzoyl)-3-(4-((R)-2,3-dihydroxypropoxy)phenyl)-2-(3,5-dimethyl-1H-pyrazol-1-yl)-6-methyl-5,6,7,8-tetrahydropyrido[3,4-d]pyrimidin-4(3H)-one], for which the EC50 in the series with HBV was below 50 nM. The CC50 at 3 days in series [1] is above 500 nM.

As to `Cc1cc(C)n(-c2nc3c(c(=O)n2-c2ccc(NC[C@@H](C)O)nc2)C[C@@H](C)N(C(=O)c2ccc(Br)c(C(F)(F)F)c2)C3)n1` [Compound 8, (R)-7-(4-bromo-3-(trifluoromethyl)benzoyl)-2-(3,5-dimethyl-1H-pyrazol-1-yl)-3-(6-(((R)-2-hydroxypropyl)amino)pyridin-3-yl)-6-methyl-5,6,7,8-tetrahydropyrido[3,4-d]pyrimidin-4(3H)-one], the EC50 in the series on HBV was below 50 nM. This compound registered a CC50 at 3 days in series [1] above 500 nM.

`Cc1cc(C)n(-c2nc3c(c(=O)n2-c2ccc(N4CC[C@@H](O)C4)nc2)C[C@@H](C)N(C(=O)c2ccc(Br)c(C(F)(F)F)c2)C3)n1` [Compound 9, (R)-7-(4-bromo-3-(trifluoromethyl)benzoyl)-2-(3,5-dimethyl-1H-pyrazol-1-yl)-3-(6-((R)-3-hydroxypyrrolidin-1-yl)pyridin-3-yl)-6-methyl-5,6,7,8-tetrahydropyrido[3,4-d]pyrimidin-4(3H)-one]: in the series on HBV, the concentration for a half-maximal effect (EC50) is below 50 nM. Also, in series [1], the CC50 at 3 days was above 500 nM.

`Cc1cc(C)n(-c2nc3c(c(=O)n2-c2ccc(N4CCNCC4)nc2)C[C@@H](C)N(C(=O)c2ccc(Br)c(C(F)(F)F)c2)C3)n1` [Compound 10, (R)-7-(4-bromo-3-(trifluoromethyl)benzoyl)-2-(3,5-dimethyl-1H-pyrazol-1-yl)-6-methyl-3-(6-(piperazin-1-yl)pyridin-3-yl)-5,6,7,8-tetrahydropyrido[3,4-d]pyrimidin-4(3H)-one hydrochloride]: in the series with HBV, the 50% effective concentration (EC50) was below 50 nM. In series [1], this compound had a CC50 at 3 days above 500 nM.

In turn, `Cc1cc(C)n(-c2nc3c(c(=O)n2-c2ccc(N4CCN(C)CC4)nc2)C[C@@H](C)N(C(=O)c2ccc(Br)c(C(F)(F)F)c2)C3)n1` [Compound 11, (R)-7-(4-bromo-3-(trifluoromethyl)benzoyl)-2-(3,5-dimethyl-1H-pyrazol-1-yl)-6-methyl-3-(6-(4-methylpiperazin-1-yl)pyridin-3-yl)-5,6,7,8-tetrahydropyrido[3,4-d]pyrimidin-4(3H)-one] returned an EC50 in the series on HBV below 50 nM. Also, the CC50 at 3 days in series [1] is above 500 nM.

With `Cc1cc(C)n(-c2nc3c(c(=O)n2-c2ccc(OC[C@H](C)OP(=O)(O)O)cc2)C[C@@H](C)N(C(=O)c2ccc(Br)c(C(F)(F)F)c2)C3)n1` [Compound 12, (S)-1-(4-((R)-7-(4-bromo-3-(trifluoromethyl)benzoyl)-2-(3,5-dimethyl-1H-pyrazol-1-yl)-6-methyl-4-oxo-5,6,7,8-tetrahydropyrido[3,4-d]pyrimidin-3(4H)-yl)phenoxy)propan-2-yl dihydrogen phosphate], in the series with HBV, the 50% effective concentration (EC50) was 50 to 500 nM. In series [1], this compound returned a CC50 at 3 days above 500 nM.

The compound `Cc1cc(C)n(-c2nc3c(c(=O)n2-c2ccc4c(cnn4C)c2)C[C@@H](C)N(C(=O)c2ccc(Br)c(C(F)(F)F)c2)C3)n1` [Compound 13, (6R)-7-[4-bromo-3-(trifluoromethyl)benzoyl]-2-(3,5-dimethylpyrazol-1-yl)-6-methyl-3-(1-methylindazol-5-yl)-6,8-dihydro-5H-pyrido[3,4-d]pyrimidin-4-one] displayed an EC50 with HBV below 50 nM. Also, in series [1], the CC50 at 3 days is above 500 nM.

Take `Cc1cc(C)n(-c2nc3c(c(=O)n2-c2ccc(OC[C@@H](C)O)cc2)C[C@@H](C)N(C(=O)c2ccc(Br)c(C(F)(F)F)c2)C3)n1` [Compound 14, (6R)-7-[4-bromo-3-(trifluoromethyl)benzoyl]-2-(3,5-dimethylpyrazol-1-yl)-3-[4-[(2R)-2-hydroxypropoxy]phenyl]-6-methyl-6,8-dihydro-5H-pyrido[3,4-d]pyrimidin-4-one]: the EC50 in the series with HBV is below 50 nM. The compound further yielded a CC50 at 3 days in series [1] above 500 nM.
